Among the data in ChEMBL document CHEMBL5505964, “HDAC/NAMPT dual inhibitors overcome initial drug-resistance in p53-null leukemia cells” (Eur J Med Chem, 2024) are GI50, IC50 and CC50 values, retold here.

One assay deals with MV4-11. The assay is described as follows: cells. The following applies: Homo sapiens; for GI50: MV4-11, time 48 hrs. The assay is classed as functional, cell-based.
For the next assay, the target named is T1, Histone deacetylase 7 (Homo sapiens, UniProt Q8WUI4).
T1 sequence (Q8WUI4 whole entry): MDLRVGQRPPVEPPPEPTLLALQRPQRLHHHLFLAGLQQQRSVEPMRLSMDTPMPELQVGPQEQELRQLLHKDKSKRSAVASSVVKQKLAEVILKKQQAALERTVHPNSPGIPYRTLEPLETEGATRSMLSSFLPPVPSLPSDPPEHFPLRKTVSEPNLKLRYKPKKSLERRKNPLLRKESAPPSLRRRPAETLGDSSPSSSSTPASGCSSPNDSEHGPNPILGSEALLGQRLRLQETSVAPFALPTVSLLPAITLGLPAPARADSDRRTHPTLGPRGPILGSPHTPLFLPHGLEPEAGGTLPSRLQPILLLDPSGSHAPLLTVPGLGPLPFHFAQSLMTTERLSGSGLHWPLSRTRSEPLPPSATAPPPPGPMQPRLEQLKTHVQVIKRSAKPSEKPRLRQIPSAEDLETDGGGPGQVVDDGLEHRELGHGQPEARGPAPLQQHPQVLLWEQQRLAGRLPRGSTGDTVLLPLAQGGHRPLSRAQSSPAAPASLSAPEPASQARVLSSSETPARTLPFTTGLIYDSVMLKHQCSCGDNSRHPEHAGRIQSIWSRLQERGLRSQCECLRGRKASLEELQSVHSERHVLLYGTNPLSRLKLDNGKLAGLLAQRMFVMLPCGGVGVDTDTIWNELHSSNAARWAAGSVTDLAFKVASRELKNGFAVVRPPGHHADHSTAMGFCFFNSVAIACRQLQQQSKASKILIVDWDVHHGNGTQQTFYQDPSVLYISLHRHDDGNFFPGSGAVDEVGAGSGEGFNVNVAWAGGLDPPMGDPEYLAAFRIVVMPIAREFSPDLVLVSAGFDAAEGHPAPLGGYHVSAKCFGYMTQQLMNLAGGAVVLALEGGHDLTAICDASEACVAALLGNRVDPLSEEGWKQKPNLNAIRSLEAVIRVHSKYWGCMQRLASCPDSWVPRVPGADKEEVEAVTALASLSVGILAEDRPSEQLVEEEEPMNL
The assay is described as follows: Inhibition of N-terminal GST-tagged human HDAC7 (518 to end residues) expressed in baculovirus-infected Sf9 cells using Boc-Lys-(trifluoroacetyl)-AMC as substrate preincubated with enzyme for 1 hr followed by substrate addition and measured after 2 hrs by fluorescence analysis.

In a further assay the target is Histone deacetylase 9 (Homo sapiens, UniProt Q9UKV0). The assay is described as follows: Inhibition of C-terminal His-tagged human recombinant HDAC9 (604 to 1066 residues) expressed in baculovirus-infected Sf9 cells using Boc-Lys-(trifluoroacetyl)-AMC as substrate preincubated with enzyme for 1 hr followed by substrate addition and measured after 2 hrs by fluorescence analysis.
Histone deacetylase 9, sequence (Q9UKV0 whole entry, the tested form may be a part): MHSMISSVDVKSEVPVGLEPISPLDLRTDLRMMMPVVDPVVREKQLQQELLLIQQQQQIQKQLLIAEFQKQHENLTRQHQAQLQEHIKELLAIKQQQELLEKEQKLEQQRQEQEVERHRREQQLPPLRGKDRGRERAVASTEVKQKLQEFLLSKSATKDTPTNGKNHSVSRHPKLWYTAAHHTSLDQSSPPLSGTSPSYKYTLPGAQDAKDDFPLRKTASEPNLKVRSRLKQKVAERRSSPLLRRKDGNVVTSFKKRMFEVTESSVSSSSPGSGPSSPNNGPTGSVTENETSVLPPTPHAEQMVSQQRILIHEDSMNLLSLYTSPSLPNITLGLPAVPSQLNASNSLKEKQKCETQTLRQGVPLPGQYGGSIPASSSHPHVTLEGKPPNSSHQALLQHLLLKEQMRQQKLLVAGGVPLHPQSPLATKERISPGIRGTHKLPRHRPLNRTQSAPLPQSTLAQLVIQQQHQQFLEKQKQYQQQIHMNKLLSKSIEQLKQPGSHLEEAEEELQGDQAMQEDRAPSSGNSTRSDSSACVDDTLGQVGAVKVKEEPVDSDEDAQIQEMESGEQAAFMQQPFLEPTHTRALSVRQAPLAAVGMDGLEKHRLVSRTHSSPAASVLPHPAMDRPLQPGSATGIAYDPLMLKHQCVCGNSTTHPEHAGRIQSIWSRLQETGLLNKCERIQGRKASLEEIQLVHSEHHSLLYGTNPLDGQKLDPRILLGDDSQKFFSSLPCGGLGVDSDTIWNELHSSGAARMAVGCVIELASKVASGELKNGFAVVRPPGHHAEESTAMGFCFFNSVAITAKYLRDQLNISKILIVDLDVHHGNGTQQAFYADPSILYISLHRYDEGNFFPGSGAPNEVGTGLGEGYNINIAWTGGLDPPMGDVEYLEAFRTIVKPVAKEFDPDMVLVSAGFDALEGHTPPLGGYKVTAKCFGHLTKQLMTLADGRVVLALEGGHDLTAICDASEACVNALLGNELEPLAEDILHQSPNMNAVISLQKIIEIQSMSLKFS

Assay [1] concerns the target T2, Protein deacetylase HDAC6 (Homo sapiens, UniProt Q9UBN7).
T2 sequence (Q9UBN7 whole entry): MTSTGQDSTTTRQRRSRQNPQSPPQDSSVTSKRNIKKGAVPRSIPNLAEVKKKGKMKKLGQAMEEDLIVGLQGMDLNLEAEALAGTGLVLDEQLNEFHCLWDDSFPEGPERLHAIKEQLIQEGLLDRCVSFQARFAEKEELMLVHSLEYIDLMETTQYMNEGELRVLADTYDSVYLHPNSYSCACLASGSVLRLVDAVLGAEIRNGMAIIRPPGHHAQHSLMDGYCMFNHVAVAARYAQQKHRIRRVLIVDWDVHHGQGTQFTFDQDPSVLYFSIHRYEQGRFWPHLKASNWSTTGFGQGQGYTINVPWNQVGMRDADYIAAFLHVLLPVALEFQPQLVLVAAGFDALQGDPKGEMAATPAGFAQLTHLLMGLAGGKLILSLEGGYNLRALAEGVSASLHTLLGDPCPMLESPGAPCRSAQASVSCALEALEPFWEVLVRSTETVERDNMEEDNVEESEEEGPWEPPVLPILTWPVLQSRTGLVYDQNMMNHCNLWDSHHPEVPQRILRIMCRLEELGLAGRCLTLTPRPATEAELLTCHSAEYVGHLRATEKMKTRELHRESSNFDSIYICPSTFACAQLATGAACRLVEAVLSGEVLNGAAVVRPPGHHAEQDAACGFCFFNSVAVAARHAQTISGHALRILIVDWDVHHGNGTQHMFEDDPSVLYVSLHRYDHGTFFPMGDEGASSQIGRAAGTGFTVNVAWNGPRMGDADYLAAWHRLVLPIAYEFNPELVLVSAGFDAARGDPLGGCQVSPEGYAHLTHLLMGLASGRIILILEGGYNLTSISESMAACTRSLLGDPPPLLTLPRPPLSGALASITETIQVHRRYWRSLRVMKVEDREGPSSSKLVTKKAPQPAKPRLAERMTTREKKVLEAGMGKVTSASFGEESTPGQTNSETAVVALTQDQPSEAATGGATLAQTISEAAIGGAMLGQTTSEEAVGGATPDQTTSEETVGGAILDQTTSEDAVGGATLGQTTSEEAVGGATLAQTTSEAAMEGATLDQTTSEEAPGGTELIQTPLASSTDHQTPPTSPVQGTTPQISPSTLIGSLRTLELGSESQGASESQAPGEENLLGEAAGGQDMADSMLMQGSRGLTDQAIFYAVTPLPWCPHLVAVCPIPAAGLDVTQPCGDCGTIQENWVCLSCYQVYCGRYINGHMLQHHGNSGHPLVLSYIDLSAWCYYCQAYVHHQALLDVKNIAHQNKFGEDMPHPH
The experiment in a line: Inhibition of N-terminal GST-tagged human full length recombinant HDAC6 (1 to 1215 residues) expressed in baculovirus-infected Sf9 cells using Boc-Lys-(acetyl)-AMC as substrate preincubated with enzyme for 1 hr followed by substrate addition and measured after 2 hrs by fluorescence analysis.

The next assay concerns HL-60. The experiment in a line: Antiproliferative activity against p53-null human HL-60 cells assessed as induction of cell death incubated for 48 hrs in presence of nicotinamide mononucleotide by resazurin dye based fluorescence analysis. The assay is classed as functional. The note with it: read-out: LD50 (the source's name). A general note: Alamar Blue is a resazurin reagent that responds to reducing activity.

In another assay the target is Histone deacetylase 5 (Homo sapiens, UniProt Q9UQL6). The experiment in a line: Inhibition of C-terminal His-tagged human HDAC5 catalytic domain (656 to 1122 residues) expressed in baculovirus-infected Sf9 cells using Boc-Lys-(trifluoroacetyl)-AMC as substrate preincubated with enzyme for 1 hr followed by substrate addition and measured after 2 hrs by fluorescence analysis.
Histone deacetylase 5, sequence (Q9UQL6 whole entry, the tested form may be a part): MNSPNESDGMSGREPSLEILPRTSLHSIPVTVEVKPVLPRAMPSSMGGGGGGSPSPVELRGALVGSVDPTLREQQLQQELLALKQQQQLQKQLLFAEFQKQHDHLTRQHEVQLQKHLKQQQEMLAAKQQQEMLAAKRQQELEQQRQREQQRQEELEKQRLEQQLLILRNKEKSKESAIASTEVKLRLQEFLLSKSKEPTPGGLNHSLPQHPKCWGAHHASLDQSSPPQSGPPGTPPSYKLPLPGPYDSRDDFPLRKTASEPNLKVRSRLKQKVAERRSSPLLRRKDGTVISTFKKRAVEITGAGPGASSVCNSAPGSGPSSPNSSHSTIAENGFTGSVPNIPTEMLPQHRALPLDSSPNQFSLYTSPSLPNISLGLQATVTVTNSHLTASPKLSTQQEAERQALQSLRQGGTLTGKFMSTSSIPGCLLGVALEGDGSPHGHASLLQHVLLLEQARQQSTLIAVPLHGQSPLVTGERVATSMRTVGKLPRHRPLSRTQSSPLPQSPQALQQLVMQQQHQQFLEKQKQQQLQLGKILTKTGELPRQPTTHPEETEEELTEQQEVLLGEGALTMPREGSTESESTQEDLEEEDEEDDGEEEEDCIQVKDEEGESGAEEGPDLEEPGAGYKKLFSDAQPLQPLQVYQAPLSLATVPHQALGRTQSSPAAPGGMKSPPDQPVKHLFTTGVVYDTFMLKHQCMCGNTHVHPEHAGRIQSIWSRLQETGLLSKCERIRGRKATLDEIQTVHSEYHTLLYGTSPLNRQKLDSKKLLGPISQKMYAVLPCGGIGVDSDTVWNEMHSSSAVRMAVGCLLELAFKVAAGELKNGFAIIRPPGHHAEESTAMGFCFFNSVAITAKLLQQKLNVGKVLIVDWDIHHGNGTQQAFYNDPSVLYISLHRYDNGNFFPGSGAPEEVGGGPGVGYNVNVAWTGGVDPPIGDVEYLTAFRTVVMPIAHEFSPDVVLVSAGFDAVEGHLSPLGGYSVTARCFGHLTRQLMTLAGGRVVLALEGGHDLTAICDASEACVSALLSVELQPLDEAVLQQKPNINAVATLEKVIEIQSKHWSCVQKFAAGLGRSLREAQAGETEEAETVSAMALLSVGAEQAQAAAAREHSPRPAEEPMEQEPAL

Usually GI50 stands for the concentration giving 50% growth inhibition. A low value points to more potent growth inhibition. A word on the IC50: it is the concentration that gives 50% inhibition.

As for `CCCNNC(=O)c1ccc(CNC(=O)c2cc3cnccc3[nH]2)cc1`, the GI50 with MV4-11 amounted to 0.0236 µM. The IC50 (at Histone deacetylase 7; at Histone deacetylase 9; in assay [1]; against Histone deacetylase 5) was above 10 µM in each case. Moreover, the CC50 in the assay with HL-60 was above 100 µM.
As to `CCCNNC(=O)c1ccc(CNC(=O)/C=C/c2cccnc2)cc1`, the IC50 was 0.0608 µM in the assay with MV4-11 (MV4-11, 48 h); above 10 µM against Histone deacetylase 7; above 10 µM on Histone deacetylase 9; above 10 µM in assay [1]; above 10 µM at Histone deacetylase 5. Growth in the assay with MV4-11 was halved (GI50) at 0.0383 µM. Besides, the CC50 in the assay on HL-60 is above 100 µM.
